Values of other authors, collected in patent publication US20230157949A1, “ORAL FILM OF HIV DRUGS” (LAURUS LABS LIMITED, priority 2020, published 2023).

Conditions: in combination with low doses of ritonavir

In the case of `Cc1cccc(C)c1OCC(=O)N[C@@H](Cc1ccccc1)[C@@H](O)C[C@H](Cc1ccccc1)NC(=O)[C@H](C(C)C)N1CCCNC1=O` [lopinavir, Lopinavir], the “increase of AUC” value is given as “greater than 100 fold”.
